US9012431B2, “Boron-containing small molecules as anti-inflammatory agents” (Anacor Pharmaceuticals, Inc., priority 2008, dated 2015)

Key:
[1] = test system: CD-1 (Crl.) derived male mice; experiment: Phorbol Ester Induced Mouse Ear Edema Model; type: in vivo; details: topical, 6 h; for inhibition in vivo at 0.2 mg: 0.2 mg/ear × 2 topical; for inhibition in vivo at 1 mg: 1 mg/ear × 2 topical; for inhibition in vivo at 0.02 mg: 0.02 mg/ear × 2 topical; for inhibition in vivo at 0.067 mg: 0.067 mg/ear × 2 topical; for inhibition in vivo at 0.05 mg: 0.05 mg/ear × 2 topical
Method: 1. In Vivo Anti-Inflammation Activity in Phorbol Ester Induced Mouse Ear Edema Model
[…] Dexamethasone (1 mg/ear×2) used as the positive control was administered topically to test animals using the same application schedule. Ear swelling was then measured by a Dyer model micrometer gauge at 6 hours after PMA application as an index of inflammation. Percent inhibition was calculated according to the formula: [(Ic−It)/Ic]×100%, where Ic and It refer to increase of ear thickness (mm) in control and treated mice, respectively.

IL-2 = experiment: Cytokine assay, IL-2 release from PBMC; type: cell-based; details: human PBMC, 20 ug/mL PHA; for IC50: supernatant at 24 hours
Procedure, shortened: (§1)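 Cytokine released into the medium was the read-out. Thawed human peripheral blood mononuclear cells in RPMI 1640/10% FBS received test article at 0.01–10 μM, in triplicate wells.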

IL-5 = experiment: Cytokine assay, IL-5 release from PBMC; type: cell-based; details: human PBMC, 20 ug/mL PHA; for IC50: supernatant at 48 hours
Procedure, shortened: as §1

IL-10 = experiment: Cytokine assay, IL-10 release from PBMC; type: cell-based; details: human PBMC, 20 ug/mL PHA; for IC50: supernatant at 48 hours
Procedure, shortened: as §1

TNF-α = experiment: Cytokine assay, TNF-α release from PBMC; type: cell-based; details: 1 μg/mL LPS; for IC50: Homo sapiens, PBMC, 24 h, supernatant at 24 hours
Procedure, shortened: as §1

BALB/c male mice = experiment: Oxazolone Induced Mouse Ear Edema Model; type: in vivo; details: for inhibition in vivo at 0.2 mg: 0.2 mg/ear × 2 topical; for inhibition in vivo at 1 mg: 1 mg/ear × 2 topical; for inhibition in vivo at 3 mg: 3 mg/ear × 2 topical
Method: 2. In Vivo Anti-Inflammation Activity in Oxazolone Induced Mouse Ear Edema Model
Groups of 5 BALB/c male mice weighing 23±2 g were used. The preshaved abdomens of test animals were sensitized by application of 100 μl, of 1.5% oxazolone solution dissolved in acetone. Seven days after the initial sensitization, test substances, as well as vehicle (acetone:ethanol/1:1, 20 μL/ear) were each administered topically to the anterior and posterior surfaces of the right ear 30 minutes before, and 15 minutes after, challenge by a second application of oxazolone (1% in acetone, […]) via topical route. As a positive control, indomethacin (0.3 mg/ear×2) was administered topically using the same treatment regime as for the test compounds. Twenty-four hours after the second application of oxazolone, the ear thickness of each mouse was measured with a Dyer model micrometer gauge. A 30 percent or more inhibition in ear swelling relative to the vehicle control was considered significant and indicated possible anti-inflammatory activity.

[2] = test system: T1, PDE4 partially purified from human U-937 myeloid leukemia cells; experiment: PDE4 Assay (enzyme from U-937 cells, [3H]cAMP); type: biochemical; details: PDE4 from U-937 cells, Tris buffer pH 7.5, 20 minutes at 25° C.
T1 construct: PDE4 partially purified from human U-937 myeloid leukemia cells was used

IFN-γ = experiment: Cytokine assay, IFN-γ release from PBMC; type: cell-based; details: human PBMC, 20 ug/mL PHA, supernatant at 24 hours
Procedure, shortened: as §1

[3] = Acetone:Ethanol/1:1, ear swelling 6 hours after PMA
[4] = Acetone:Ethanol/1:1, ear thickness 24 hours after second oxazolone application
[5] = 95% Ethanol, ear swelling 6 hours after PMA
[6] = 95% Ethanol, ear thickness 24 hours after second oxazolone application

Compound	inhibition in vivo at 1 mg [1, 3] [%]	inhibition in vivo at 1 mg (BALB/c male mice; [4]) [%]	IC50 [2] [nM]	IC50 (IFN-γ) [nM]	IC50 (IL-2) [nM]	IC50 (IL-5) [nM]	IC50 (IL-10) [nM]	IC50 (TNF-α) [nM]	other results
O=C(O)c1ccc(Oc2ccc3c(c2)COB3O)nc1 [D61, 6-(1-Hydroxy-1,3-dihydrobenzo[c][1,2]oxaborol-5-yloxy)nicotinic acid]	30 to 60	< 20	–	–	–	–	–	–	inhibition in vivo at 0.1 mg ([1]; 0.1 mg/ear × 2 topical, Acetone:Ethanol/1:1, ear swelling 6 hours after PMA): < 30%; inhibition in vivo at 0.2 mg [1, 3]: < 30%; inhibition at 10 µM (IL-2; 24 hours, 10 μM): < 30%; inhibition at 10 µM (IL-5; 48 hours, 10 μM): 30 to 60%; inhibition at 10 µM (IL-10; 48 hours, 10 μM): < 30%; inhibition at 10 µM (TNF-α; human PBMC, 24 hours, 10 μM): < 30%; inhibition in vivo at 0.1 mg (BALB/c male mice; 0.1 mg/ear × 2 topical, Acetone:Ethanol/1:1, ear thickness 24 hours after second oxazolone application): < 20%; inhibition in vivo at 0.2 mg (BALB/c male mice; [4]): < 20%
N#Cc1ccc(Oc2ccc3c(c2)COB3O)nc1N1CCOCC1 [D102, 6-(1-Hydroxy-1,3-dihydro-benzo[c][1,2]oxaborol-5-yloxy)-2-morpholin-4-yl-nicotinonitrile]	–	< 20	< 1000	< 1000	< 1000	< 1000	1000 to 4000	< 1000	inhibition in vivo at 0.02 mg [1, 5]: < 30%; inhibition in vivo at 0.067 mg [1, 5]: < 30%; inhibition in vivo at 1 mg [1, 5]: 30 to 60%; inhibition in vivo at 3 mg ([1]; 3 mg/ear × 2 topical, 95% Ethanol, ear swelling 6 hours after PMA): 30 to 60%
CCOc1nc(Oc2ccc3c(c2)COB3O)ccc1C#N [D107, 2-Ethoxy-6-(1-hydroxy-1,3-dihydro-benzo[c][1,2]oxaborol-5-yloxy)-nicotinonitrile]	–	–	< 1000	< 1000	< 1000	< 1000	< 1000	< 1000	inhibition in vivo at 0.02 mg [1, 5]: < 30%; inhibition in vivo at 0.06 mg ([1]; 0.06 mg/ear × 2 topical, 95% Ethanol, ear swelling 6 hours after PMA): < 30%; inhibition in vivo at 0.067 mg [1, 5]: 30 to 60%; inhibition in vivo at 0.2 mg [1, 5]: 60 to 90%; inhibition in vivo at 0.24 mg ([1]; 0.24 mg/ear × 2 topical, 95% Ethanol, ear swelling 6 hours after PMA): 30 to 60%; inhibition in vivo at 0.8 mg ([1]; 0.8 mg/ear × 2 topical, 95% Ethanol, ear swelling 6 hours after PMA): 60 to 90%; inhibition in vivo at 2.4 mg ([1]; 2.4 mg/ear × 2 topical, 95% Ethanol, ear swelling 6 hours after PMA): 60 to 90%; inhibition in vivo at 2.4 mg (BALB/c male mice; 2.4 mg/ear × 2 topical, 95% Ethanol, ear thickness 24 hours after second oxazolone application): < 20%
CCOc1cc(Oc2ccc3c(c2)COB3O)ccc1C#N [D124, 2-Ethoxy-4-(1-hydroxy-1,3-dihydrobenzo[c][1,2]oxaborol-5-yloxy)benzonitrile]	–	< 20	< 1000	< 1000	< 1000	< 1000	< 1000	< 1000	inhibition in vivo at 1 mg [1, 5]: < 30%
CCOC(=O)c1ccc(Oc2ccc3c(c2)COB3O)nc1OCC [D27, Ethyl 2-ethoxy-6-(1-hydroxy-1,3-dihydrobenzo[c][1,2]oxaborol-5-yloxy)nicotinate]	–	–	< 1000	< 1000	< 1000	–	–	< 1000	inhibition in vivo at 3 mg (BALB/c male mice; [6]): 20 to 30%
COc1ccc2c(c1)c(CC(=O)O)c(C)n2C(=O)c1ccc(Cl)cc1 [Indomethacin, indomethacin, reference compound]	–	–	–	–	–	–	–	–	inhibition in vivo at 0.3 mg (BALB/c male mice; 0.3 mg/ear × 2 topical, 95% Ethanol, ear thickness 24 hours after second oxazolone application): 40 to 60%
CCCCOC(=O)c1ccc(Oc2ccc3c(c2)COB3O)nc1 [D68, n-Butyl 6-(1-hydroxy-1,3-dihydrobenzo[c][1,2]oxaborol-5-yloxy)nicotinate]	30 to 60	< 20	< 1000	4000 to 10000	< 1000	1000 to 4000	1000 to 4000	< 1000	–
COc1cc(C#N)ccc1Oc1ccc2c(c1)COB2O [D15, 5-(4-Cyano-2-methoxyphenoxy)-1,3-dihydro-1-hydroxy-2,1-benzoxaborole]	30 to 60	40 to 60	< 1000	< 1000	< 1000	–	–	< 1000	–
COc1nc(Oc2cc3c(cc2F)B(O)OC3)ccc1C#N [D122, 6-(6-Fluoro-1-hydroxy-1,3-dihydrobenzo[c][1,2]oxaborol-5-yloxy)-2-methoxynicotinonitrile]	–	< 20	< 1000	< 1000	< 1000	< 1000	< 1000	< 1000	–
COCCN(C)c1nc(Oc2ccc3c(c2)COB3O)ccc1C#N [D96, 6-(1-hydroxy-1,3-dihydro-benzo[c][1,2]oxaborol-5-yloxy)-2-[(2-methoxy-ethyl)-methyl-amino]-nicotinonitrile]	–	< 20	< 1000	< 1000	< 1000	1000 to 4000	1000 to 4000	< 1000	–
CCOC(=O)COc1cc(C#N)ccc1Oc1ccc2c(c1)COB2O [D16, 5-[4-Cyano-2-(ethoxycarbonylmethoxy)phenoxy]-1,3-dihydro-1-hydroxy-2,1-benzoxaborole]	90 to 100	–	< 1000	< 1000	1000 to 4000	–	–	< 1000	inhibition in vivo at 0.2 mg [1, 3]: 60 to 90%; inhibition in vivo at 3 mg (BALB/c male mice; [6]): < 20%
COCCNc1nc(Oc2ccc3c(c2)COB3O)ccc1C#N [D111, 6-(1-Hydroxy-1,3-dihydro-benzo[c][1,2]oxaborol-5-yloxy)-2-(2-methoxy-ethylamino)-nicotinonitrile]	–	–	–	–	–	–	–	< 1000	inhibition in vivo at 0.015 mg ([1]; 0.015 mg/ear × 2 topical, 95% Ethanol, ear swelling 6 hours after PMA): < 30%; inhibition in vivo at 0.05 mg [1, 5]: < 30%; inhibition in vivo at 0.15 mg ([1]; 0.15 mg/ear × 2 topical, 95% Ethanol, ear swelling 6 hours after PMA): < 30%; inhibition in vivo at 1 mg [1, 5]: < 30%; inhibition in vivo at 0.15 mg (BALB/c male mice; 0.15 mg/ear × 2 topical, 95% Ethanol, ear thickness 24 hours after second oxazolone application): < 20%
N#Cc1ccc(Oc2ccc3c(c2)COB3O)c(O)c1 [D14, 5-(4-Cyano-2-hydroxyphenoxy)-1,3-dihydro-1-hydroxy-2,1-benzoxaborole]	< 30	–	< 1000	< 1000	< 1000	< 1000	1000 to 4000	< 1000	inhibition in vivo at 0.05 mg [1, 5]: < 30%; inhibition in vivo at 0.17 mg ([1]; 0.17 mg/ear × 2 topical, 95% Ethanol, ear swelling 6 hours after PMA): < 30%; inhibition in vivo at 0.51 mg ([1]; 0.51 mg/ear × 2 topical, 95% Ethanol, ear swelling 6 hours after PMA): < 30%; inhibition in vivo at 1 mg [1, 5]: < 30%
CCOC(=O)c1cnc(Oc2ccc3c(c2)COB3O)c(Cl)c1 [D48, Ethyl 5-chloro-6-(1-hydroxy-1,3-dihydrobenzo[c][1,2]oxaborol-5-yloxy)nicotinate]	< 30	20 to 30	< 1000	< 1000	< 1000	–	–	< 1000	inhibition in vivo at 0.2 mg [1, 3]: < 30%; inhibition in vivo at 0.2 mg (BALB/c male mice; [4]): < 20%
N#Cc1ccc(Oc2ccc3c(c2)COB3O)c(Cl)c1 [D4, 5-(2-Chloro-4-cyanophenoxy)-1,3-dihydro-1-hydroxy-2,1-benzoxaborole]	–	30 to 40	< 1000	< 1000	< 1000	< 1000	> 10000	< 1000	inhibition in vivo at 0.02 mg (BALB/c male mice; 0.02 mg/ear × 2 topical, Acetone:Ethanol/1:1, ear thickness 24 hours after second oxazolone application): < 20%
N#Cc1ccc(Oc2ccc3c(c2)COB3O)nc1OC1CCCC1 [D100, 2-Cyclopentyloxy-6-(1-hydroxy-1,3-dihydro-benzo[c][1,2]oxaborol-5-yloxy)-nicotinonitrile]	–	–	< 1000	< 1000	< 1000	< 1000	< 1000	< 1000	inhibition in vivo at 0.028 mg ([1]; 0.028 mg/ear × 2 topical, 95% Ethanol, ear swelling 6 hours after PMA): < 30%; inhibition in vivo at 0.28 mg ([1]; 0.28 mg/ear × 2 topical, 95% Ethanol, ear swelling 6 hours after PMA): 30 to 60%
